From US8431606B2, “Medicament for treating schizophrenia comprising cilostazol” (Otsuka Pharmaceutical Co., Ltd., priority 2007, dated 2013)

Experiments:
Assay type in all cases: in vivo
[1] = tested on: dizocilpine-induced PPI deficits in mice; experiment: prepulse inhibition of the acoustic startle reflex, dizocilpine-induced PPI deficits in mice; details: dizocilpine 0.1 mg/kg, cilostazol administered one hour before testing, dose dependent manner
Method: The test animals were prepared by similar means of the above Example 2. Cilostazol was administered one hour before testing. Testing was conducted in eight startle devices each consisting of a Plexiglas cylinder (5 cm in diameter) mounted on a Plexiglas platform in a ventilated sound attenuated cubicle with a high-frequency loudspeaker producing all acoustic stimuli. The background noise of each chamber was 65 dB. Movements within the cylinder were detected and transduced by a piezoelectric accelerometer attached to the Plexiglas base and digitized and stored by a computer. Beginning at the stimulus onset, readings were recorded to obtain the animals' startle amplitude. Each section was initiated with a 10 minutes acclimation period followed by six successive trials, which were not included in the analysis. Startle pulse alone (ST110, 110 dB/40 msec); eight different prepulse trials in which either 20-msec-long 69, 73, 77, and 81 dB stimuli were presented alone (P69, P73, P77, P81) or preceded the 110 dB pulse by 100 msec (PP69, PP73, PP77, PP81); and finally one trial in which only the background noise was presented to measure the baseline movements in the cylinder. All trials were presented in a pseudorandom order, and the average intertrial interval (ITI) was […]. The startle data and percentage prepulse inhibition (PPI) were analyzed by MANOVA (two-ways ANOVA).

[2] = tested on: model animals prepared with phencyclidine; experiment: re-recognizing test for a new object in model animals prepared with phencyclidine; details: male ICR mice, phencyclidine 10 mg/kg s.c. 10 days
Method: Male ICR mice (6 weeks old, 25-30 g, purchased from Japan SLC, Inc.) were used as experimental animals. The experimental procedure was approved by the laboratory animal ethics committee in the Graduate School of Medicine and School of Medicine, Chiba University. Phencyclidine was subcutaneously administered to the mice in 10 mg/kg once a day for 10 days. […] Twenty four hours after the final administration, re-recognizing test for a new object was carried out. The re-recognizing test for a new object was carried out using a black open-field (50.8×50.8×25.4 cm). The mice were made to be trained in the open-field for three days before starting the re-recognizing test for a new object. Two objects which have almost the same size but different shapes and colors were set separating off in a distance of 35.5 cm, and then the mice were made to seek for 10 minutes. After the seeking, the mice were put back to the gauge. Twenty four hours after the first seeking, a memory retention test was carried out. On this memory retention test, one of the objects was replaced by a new one. The mice were made to seek for 5 minutes, and the time which was taken to seek each object was recorded. The results were shown as a ratio of the seeking time of the new object against that of the two objects. The data were shown as mean±standard deviation. The statistical analyses thereof were carried out using one-way ANOVA and post-hoc Bonferroni test. A p-value of 0.05 or less was considered as a statistical significance.

[3] = tested on: locomotion of mice enhanced by administering dizocilpine; experiment: dizocilpine-induced hyperlocomotion in mice; details: male ddY mice; cilostazol 0.03-3.0 mg/kg orally 30 minutes before dizocilpine 0.1 mg/kg s.c.; locomotion measured for 2 hours
Method: In this experiment, cilostazol was studied about the effect affecting the locomotion of mice which was enhanced by administering dizocilpine.
Male ddY mice (7-8 weeks old) were put in a scanning apparatus of spontaneous motor activity (SCANET SV-10, Melquest, Toyama, Japan). After 30 minutes, vehicle (0.3% CMC) or cilostazol (0.03, 0.1, 0.3, 1.0, and 3.0 mg/kg) was orally administered to the mice, and after additional 30 minutes dizocilpine (0.1 mg/kg) was administered subcutaneously. Then, the locomotion of the mice was measured for 2 hours.

SMILES: O=C1CCc2cc(OCCCCc3nnnn3C3CCCCC3)ccc2N1 [cilostazol, 6-[4-(1-cyclohexyl-1H-tetrazol-5-yl)butoxy]-3,4-dihydrocarbostyril]
- PPI deficits caused by administration of dizocilpine [1]: significantly inhibited
- condition of schizophrenia caused by phencyclidine (ratio of the seeking time of the new object) ([2]; cilostazol 3 mg/kg orally once a day for two weeks): improved significantly
- condition of schizophrenia caused by phencyclidine (ratio of the seeking time of the new object) ([2]; cilostazol 10 mg/kg orally once a day for two weeks): improved significantly
- condition of schizophrenia caused by phencyclidine (ratio of the seeking time of the new object) ([2]; cilostazol 30 mg/kg orally once a day for two weeks): improved significantly
- condition of schizophrenia caused by phencyclidine (ratio of the seeking time of the new object) ([2]; cilostazol orally once a day for two weeks, dose-dependently): improved
- locomotion enhanced by administering dizocilpine [3]: significantly inhibited
